Source: patent US20190015467A1, “AGENT FOR PREVENTING OR AMELIORATING UNEVEN SKIN TONE” (KAO CORPORATION, priority 2017, published 2019)

How the values were obtained:
[1] = tested on: skin at the elbow site of AA; assay: Organ culture of AA elbow skin with Torin 1: immunohistochemical analyses of autophagy-related, keratinization and proliferation markers; type: cell-based, human; settings: Torin 1 1 μM, tissue culture 5 days
Experimental: (§1) The technique of immunohistochemical analyses will be described. The sections were immersed in acetone or a 4% PFA/PBS solution for 10 minutes to be fixed. The fixed sections were washed with PBS-T (0.05% Tween-20/PBS) for 5 minutes 3 times in total and were blocked with a 1% BSA/PBS solution for 30 minutes. Subsequently, after the sections were subjected to overnight treatment at 4° C. with a primary antibody and were washed with PBS for 5 minutes 3 times in total, a secondary antibody (Jackson ImmunoResearch, 1:100 or 1:200) fluorescent labeled with FITC, RR-X, or Cy3 was added dropwise thereto, followed by treatment at 37° C. for 30 minutes. Thereafter, the sections were washed with PBS-T for 5 minutes 3 times in total and with PBS for 5 minutes once, mounted by aqueous encapsulant containing a nuclear-staining agent (H-1200: Vector Laboratories). Refer to Table 1 for the type of primary antibody, the tissue fixation conditions, and the concentration used.
The produced preparations were subjected to tissue observation and photographing using an inverted microscope (AxioVision, manufactured by Carl Zeiss Vision International GmbH) or a confocal laser microscope (LSM710, manufactured by Carl Zeiss Vision International GmbH). The captured images were analyzed using an image analysis software, and the expression levels of Pmel17, which is a marker of melanocyte growth and activation, cell proliferation marker Ki67, Filaggrin (FLG), Loricrin (LOR), and Transglutaminase 1 (TGM1), which are keratinization-related factors, were quantitated. Further, using RGB Profile Plot, which is an image analysis software, the fluorescence intensity distribution in the skin depth direction was investigated. The image analysis software used was “Image J” (available from imagej.nih.gov/ij/).
From skin at the elbow site of four AA women, skin tissues were collected through punch biopsy by a dermatologist. The collected tissues were halved with a scalpel, and the tissues were cultured for 5 days in the presence or absence of mTORC1 inhibitor, Torin 1 (Cayman Chemical, #10997) to a final concentration of 1 μM. In the tissue culture, a culture medium obtained by adding 10 v/v % Fetal Bovine Serum (FBS) and antibiotics (Antibiotic-Antimycotic) to Advanced-DMEM was used (both were from Life Technologies). After the completion of culture, frozen samples were rapidly produced, and immunohistochemical analyses were performed by the same procedure as in Example 1 (2) using their sections. Refer to Table 3 for the type of primary antibody, the tissue fixation conditions, and the concentration used. Further, melanin was visualized by Fontana-Masson staining, and the epidermal stratum corneum thickness and the melanin deposition area were calculated using an image analysis software (Image J).

mTORC1 = assay: Organ culture of AA elbow skin with Torin 1: immunohistochemical analysis of mTOR phosphorylation; type: cell-based, human; settings: Torin 1 1 μM, tissue culture 5 days; paired t-test p<0.05
Experimental: as §1, with “Thereafter, the sections were washed with PBS-T for 5 minutes 3 times in total and with PBS for 5 minutes once, mounted by aqueous encapsulant containing a nuclear-staining agent (H-1200: Vector Laboratories). Refer to Table 1 for the type of primary antibody, the tissue fixation conditions, and the concentration used.” left out
The produced preparations were subjected to tissue observation and photographing using an inverted microscope (AxioVision, manufactured by Carl Zeiss Vision International GmbH) or a confocal laser microscope (LSM710, manufactured by Carl Zeiss Vision International GmbH). The captured images were analyzed using an image analysis software, and the expression levels of Pmel17, which is a marker of melanocyte growth and activation, cell proliferation marker Ki67, Filaggrin (FLG), Loricrin (LOR), and Transglutaminase 1 (TGM1), which are keratinization-related factors, were quantitated. Further, using RGB Profile Plot, which is an image analysis software, the fluorescence intensity distribution in the skin depth direction was investigated. […]

[2] = tested on: cultured keratinocytes derived from human neonatal foreskin; assay: Gene expression by quantitative PCR in Torin 1-treated cultured keratinocytes; type: cell-based; settings: 24 hours culture, ANOVA, Dunnett test p<0.05
Experimental: Torin 1 was added to cultured keratinocytes derived from human neonatal foreskin, and the mixture was cultured for 24 hours in an environment of 37° C. and 5% CO2. For the cell culture, a culture medium obtained by adding a predetermined growth additive (Humedia KG2, manufactured by KURABO INDUSTRIES LTD.) to Epilife culture medium (Life Technologies) was used. RNA was extracted from the keratinocytes, and the gene expression was analyzed by quantitative PCR using a Taqman probe (Life Technologies).

[3] = tested on: skin at the elbow site of AA; assay: Organ culture of AA elbow skin with Torin 1: Fontana-Masson melanin staining and image analysis; type: cell-based, human; settings: Torin 1 1 μM, tissue culture 5 days, vs absence of Torin 1; n=4, paired t-test p<0.05
Experimental: Meanwhile, the sections were subjected to melanin staining (Melanin Stain), separately. The sections were immersed in a 4% PFA/PBS solution for 10 minutes to be fixed. The fixed sections were washed with distilled water (DDW) for 5 minutes 3 times in total, and thereafter a Fontana-ammonia silver solution (Muto) was added dropwise thereto, followed by treatment at room temperature for 30 minutes. Then, the sections were washed with DDW for 5 minutes 3 times in total, and a Kernechtrot solution (Muto) was added dropwise thereto, followed by treatment for 3 minutes, for nuclear staining. The excess staining solution was washed away with DDW, followed by dehydration, clearing, and mounting with Malinol (Muto).
From skin at the elbow site of four AA women, skin tissues were collected through punch biopsy by a dermatologist. The collected tissues were halved with a scalpel, and the tissues were cultured for 5 days in the presence or absence of mTORC1 inhibitor, Torin 1 (Cayman Chemical, #10997) to a final concentration of 1 μM. […] Further, melanin was visualized by Fontana-Masson staining, and the epidermal stratum corneum thickness and the melanin deposition area were calculated using an image analysis software (Image J).

[4] = tested on: keratinocytes (neonatal foreskin); assay: Autophagy-activating action: LC3-II protein in keratinocytes by Western blotting; type: cell-based, human; settings: 48 hours culture, same toosendanin concentration in both media, control solvent (ethanol)

SMILES	localization of ATG5-ATG12 in the epidermis [1]	localization of ATG16L1 in the epidermis [1]	distribution of Filaggrin (FLG) in the epidermis ([1]; vs untreated skin)	distribution of Loricrin (LOR) in the epidermis ([1]; vs untreated skin)	distribution of Transglutaminase 1 (TGM1) in the epidermis ([1]; vs untreated skin)	proliferating cells (number of Ki67 positive cells) ([1]; vs untreated skin)	LC3 protein ([1]; paired t-test p<0.05)	p62 protein aggregation ([1]; paired t-test p<0.05)	phosphorylation of mTOR (p-mTOR to mTOR) (mTORC1)	gene expression of Involucrin (IVL) ([2]; depending on the dose)	gene expression of TGM1 ([2]; depending on the dose)	gene expression of SKP2 [2]	amount of melanin (melanin deposition area) [3]	epidermal stratum corneum thickness [3]	LC3-II protein in the cells [4]
CCC(=O)N1CCN(c2ccc(-n3c(=O)ccc4cnc5ccc(-c6cnc7ccccc7c6)cc5c43)cc2C(F)(F)F)CC1 [Torin 1]	the localization was normalized	the localization was normalized	restored to be localized by the epidermal granular layer	restored to be localized by the epidermal granular layer	restored to be localized by the epidermal granular layer	a decrease in proliferating cells was confirmed	increased	decreased	inhibition of phosphorylation of mTOR was observed	statistically significantly increased	statistically significantly increased	statistically significantly reducing	statistically significantly decreased	statistically significantly decreased	–
CC(=O)O[C@@H]1C[C@H](O)[C@@]23CO[C@@H](O)[C@]1(C)[C@@H]2C[C@@H](O)[C@]1(C)[C@@H]3C(=O)[C@H](OC(C)=O)[C@@]2(C)[C@H](c3ccoc3)C[C@H]3O[C@]321 [toosendanin]	–	–	–	–	–	–	–	–	–	–	–	–	–	–	LC3-II protein-increasing actions
